Values after ≈ are worked out from the molar mass of the structure shown. Counter-ions that a name gives are not always drawn. Like-named read-outs stand apart in the source and are kept apart here. Bounds are passed on as bounds.

Assay [1] relates to Propionibacterium acnes NCTC 737. Briefly: MIC/MBC 96-well plate broth micro-dilution assay. In kind it is cell-based. The settings on record: for MBC / MIC: Cutibacterium acnes. As for the experimental part: The anaerobic cutaneous propionibacteria e.g. Propionibacterium acnes are implicated in the pathogenesis of acne vulgaris. The test organism Propionibacterium acnes is classified as a ‘Type’ strain for the species. […] MIC determinations were carried out using a standard 96-well plate broth micro-dilution assay. Wilkins-Chalgren anaerobe broth at pH 6 and pH 7.1±0.2 was used for P. acnes. […] The test range for the control compounds varied depending on known activity levels. […] Benzoyl peroxide and erythromycin were used as control compounds in P. acnes assays. Benzoyl peroxide and erythromycin were both dissolved in ethanol.
(Dilution methods test growth across graded concentrations, often in twofold steps.)

In the next assay the test system is sebum production. Briefly: Sebum production study in healthy male volunteers (Sebumeter). In kind it is in vivo. Conditions: for Sebum Production Maximum % Reduction LS Means: compared to placebo, healthy male volunteers. As for the experimental part:
The study examined the effects of oxybutynin on sebum production in 9 healthy male volunteers. This was double-blind, randomised, placebo-controlled dose study
The subjects were assessed on each dosing occasion for sebum production pre-dose and 1 h, 2.5 h, 4 h and 6 h post-dose. Skin sebum excretion rates were determined using a Sebumeter® (Optical measurement of sebum excretion using opalescent film imprint, 2006, Handbook of non-invasive methods and the skin, Second Edition). Vital signs were recorded at specified times during each study period and adverse events were reported throughout.
For each subject, the maximum % reduction in sebum production compared to placebo was calculated for each dose level. Using this information, a mixed effects regression analysis of the % reduction in sebum versus dose with subject as a random effect was performed.

Where [2] appears, read: NCTC737, pH 6, Wilkins-Chalgren agar, mean of minimum 4 replicates, read-out: MBC.
The mark [3] stands for this setting: NCTC737, pH 6, Wilkins-Chalgren anaerobe broth, mean of minimum 4 replicates, read-out: MIC.
Where [4] appears, read: NCTC737, pH 7.1 ± 0.2, Wilkins-Chalgren agar, mean of minimum 4 replicates, read-out: MBC.
The mark [5] stands for this setting: NCTC737, pH 7.1 ± 0.2, Wilkins-Chalgren anaerobe broth, mean of minimum 4 replicates, read-out: MIC.

In assay [1] (NCTC737, pH 6), `O=C(OOC(=O)c1ccccc1)c1ccccc1` [Benzoyl peroxide] came in with an MBC of 62.5 µg/mL (≈ 258 µM) and a minimal inhibitory concentration (MIC) of 31.2 µg/mL (≈ 129 µM). For the same compound, in assay [1] (NCTC737, pH 7.1), the MBC was 62.5 µg/mL (≈ 258 µM) and the MIC worked out at 31.2 µg/mL (≈ 129 µM).

For `CCN(CC)CC#CCOC(=O)C(O)(c1ccccc1)C1CCCCC1` (stereo not shown) [Oxybutynin chloride, oxybutynin chloride], the values for the MBC in assay [1] (setting [2]) and in assay [1] (setting [4]) were 1000 µg/mL and 500 µg/mL, respectively. For the same compound, the MIC in assay [1] (setting [3]) and in assay [1] (setting [5]) was 500 µg/mL throughout. The “Antimicrobial activity against P. acnes (in words)” value in assay [1] (pH 6) and in assay [1] (pH 7.1±0.2) was “some moderate antimicrobial activity” in each case.

Turning to `CCN(CC)CC#CCOC(=O)C(O)(c1ccccc1)C1CCCCC1` (stereo not shown) [oxybutynin], the “Sebum Production Maximum % Reduction LS Means” value in the assay on sebum production (dose 1 mg) is 21.59%; in the assay with sebum production (dose 2 mg), −16.94%; in the assay with sebum production (dose 5 mg) it was −34.74%; in the assay with sebum production (dose 10 mg), −75.52%. The “Effect on sebum production (in words)” value with sebum production (following administration of 2 mg, 5 mg and 10 mg) is given as “decreased with dose”.

For the compound `NC(=O)C(c1ccccc1)(c1ccccc1)[C@@H]1CCN(CCc2ccc3c(c2)CCO3)C1` [Darifenacin hydrobromide, darifenacin hydrobromide], the MBC came out at 1000 µg/mL in assay [1] (setting [2]) and 500 µg/mL in assay [1] (setting [4]). Besides, the MIC in assay [1] (setting [3]) and in assay [1] (setting [5]) was 500 µg/mL each time. Further, the “Antimicrobial activity against P. acnes (in words)” value in assay [1] (pH 6) and in assay [1] (pH 7.1±0.2) was “some moderate antimicrobial activity” in each case.

For `CC[C@H]1OC(=O)[C@H](C)[C@@H](O[C@H]2C[C@@](C)(OC)[C@@H](O)[C@H](C)O2)[C@H](C)[C@@H](O[C@@H]2O[C@H](C)C[C@H](N(C)C)[C@H]2O)[C@](C)(O)C[C@@H](C)C(=O)[C@H](C)[C@@H](O)[C@]1(C)O` [Erythromycin], the MBC in assay [1] (setting [2]) and in assay [1] (setting [4]) was above 2.5 µg/mL in each case. Moreover, the MIC in assay [1] (setting [3]) is 0.63 µg/mL (≈ 0.858 µM); in assay [1] (setting [5]), 0.313 µg/mL (≈ 0.426 µM).

The term MBC denotes the lowest tested concentration that kills the bacteria rather than only halting them. What is called MIC is the least concentration at which growth counts as inhibited.
